The test system of the assay is Colo205 human colon carcinoma cell line. The experiment in a line: In vitro tumor cell proliferation assay (MTS, CellTiter 96 Aqueous One Solution). The format is cell-based. The settings on record: COLO 205, Colo205 cells, 72 hours compound exposure, MTS absorbance at 490 nm, read-out: IC50 (concentration of test compound required to inhibit proliferation of 50% of the cells). How it is done:
In Vitro Tumor Cell Proliferation Assay
The adherent H460 human non-small cell lung carcinoma and Colo205 human colon carcinoma cell lines were purchased from the American Type and Culture Collection (ATCC, Manassas, Va.) and maintained in RPMI-1640 growth media supplemented with 10% heat inactivated fetal bovine serum (Gibco, Invitrogen Corp. Grand Island, N.Y.). At 37° C. in a humidified atmosphere of 5% CO2.
The CellTiter 960 Aqueous One Solution kit, MTS, (Promega, Madison, Wis.) was used to measure proliferation of tumor cell lines in vitro. This method monitors the bioreduction of a tetrazolium dye as a measure of cell viability. On Day 0, exponentially growing cells were trypsinized, resuspended in RPMI-1640 growth media supplemented with 10% FCS, 100 u/ml of penicillin G and 100 ug/ml of streptomycin sulfate, and seeded at 2000 cells per well into 96 well microtiter plates. Cells were incubated overnight in a humidified atmosphere of 5% CO2 at 37° C. On Day 1, serial dilutions of compounds were prepared at 2× the finial assay concentration. One hundred microliters of 2× solution was added to test wells in duplicate and control wells received no test compound. The final drug concentration ranged from 0 to 10-20 um in a 5 point dose-response curve. Cells were incubated in the presence of test compounds in a humidified atmosphere of 5% CO2 at 37° C. for 72 hours. After 72 hours of compound exposure, 40 ul of Promega CellTiter 960 Aqueous One Solution was added to each well and absorbance at 490 n-M was measured using a multi-well plate reader. Percent inhibition of proliferation was calculated using the following formula: 100×(1−Absorbancetreated−Background/(Absorbancecontrol−Background)
Absorbancetreated=absorbance at 490 nm in test wells, cells with test compound
Absorbancecontrol=absorbance at 490 nm in control wells, cells with no test compound
Background=absorbance 490 nm in wells containing media and no cells
The concentration of test compound required to inhibit proliferation of 50% of the cells (IC50) was determined by linear regression analysis.
Representative compounds of the invention were tested in the above-described Colo205 human colon carcinoma cell line in vitro assay and found to inhibit human colon carcinoma cell proliferation, and are summarized as follows: […]
Regarding `COC[C@H]1CCCN1Cc1ccc(-n2cc(C(=O)O)c(=O)c3cc(F)c(N4CCN(c5ccc(F)cc5)CC4)c(Cl)c32)cc1` [Example 23, 8-chloro-6-fluoro-7-[4-(4-fluorophenyl)-piperazin-1-yl]-1-(4-{[(2R)-2-(methoxymethyl)pyrrolidin-1-yl]methyl}phenyl)-4-oxo-1,4-dihydroquinoline-3-carboxylic acid], the IC50 is under 500 nM.

With `COC[C@@H]1CCCN1Cc1ccc(-n2cc(C(=O)O)c(=O)c3cc(F)c(N4CCN(c5ccccn5)CC4)c(Cl)c32)cc1` [Example 24, 8-chloro-6-fluoro-1-(4-{[(2S)-2-(methoxy-methyl)pyrrolidin-1-yl]methyl}phenyl)-4-oxo-7-(4-pyridin-2-ylpiperazin-1-yl)-1,4-dihydroquinoline-3-carboxylic acid], the IC50 was under 500 nM. For `COC[C@@H]1CCCN1Cc1ccc(-n2cc(C(=O)O)c(=O)c3cc(F)c(N4CCN(c5ccc(F)cc5)CC4)c(Cl)c32)cc1` [Example 25, 8-chloro-6-fluoro-7-[4-(4-fluorophenyl)-piperazin-1-yl]-1-(4-{[(2S)-2-(methoxymethyl)pyrrolidin-1-yl]methyl}phenyl)-4-oxo-1,4-dihydroquinoline-3-carboxylic acid], the IC50 is under 500 nM.

Take `COC[C@@H]1CCCN1Cc1ccc(-n2cc(C(=O)O)c(=O)c3cc(F)c(N4CCN(c5ncccn5)CC4)c(Cl)c32)cc1` [Example 26, 8-chloro-6-fluoro-1-(4-{[(2S)-2-(methoxy-methyl)pyrrolidin-1-yl]methyl}phenyl)-4-oxo-7-(4-pyrimidin-2-ylpiperazin-1-yl)-1,4-dihydroquinoline-3-carboxylic acid]: the IC50 was under 500 nM. `O=C(O)c1cn(-c2ccc(CN3CC[C@H](O)C3)cc2)c2c(Cl)c(N3CCN(c4ncccn4)CC3)c(F)cc2c1=O` [Example 27, 8-chloro-6-fluoro-1-(4-{[(3S)-3-hydroxy-pyrrolidin-1-yl]methyl}phenyl)-4-oxo-7-(4-pyrimidin-2-ylpiperazin-1-yl)-1,4-dihydroquinoline-3-carboxylic acid]: the IC50 is under 500 nM. `O=C(O)c1cn(-c2ccc(CN3CC[C@H](O)C3)cc2)c2c(Cl)c(N3CCN(c4ccccn4)CC3)c(F)cc2c1=O` [Example 28, 8-chloro-6-fluoro-1-(4-{[(3S)-3-hydroxypyrrolidin-1-yl]methyl}phenyl)-4-oxo-7-(4-pyridin-2-ylpiperazin-1-yl)-1,4-dihydroquinoline-3-carboxylic acid]: the IC50 is under 500 nM. On to `O=C(O)c1cn(-c2ccc(CN3CC[C@H](O)C3)cc2)c2c(Cl)c(N3CCN(c4ccc(F)cc4)CC3)c(F)cc2c1=O` [Example 29, 8-chloro-6-fluoro-7-[4-(4-fluorophenyl)-piperazin-1-yl]-1-(4-{[(3S)-3-hydroxypyrrolidin-1-yl]methyl}phenyl)-4-oxo-1,4-dihydroquinoline-3-carboxylic acid], for which the IC50 is under 500 nM. With `N#Cc1ccccc1N1CCN(c2c(F)cc3c(=O)c(C(=O)O)cn(-c4ccc(CN5CC[C@H](O)C5)cc4)c3c2Cl)CC1` [Example 30, 8-chloro-7-[4-(2-cyanophenyl)piperazin-1-yl]-6-fluoro-1-(4-{[(3S)-3-hydroxypyrrolidin-1-yl]methyl}phenyl)-4-oxo-1,4-dihydroquinoline-3-carboxylic acid], the IC50 is under 500 nM. `O=C(O)c1cn(-c2ccc(CN3CC[C@@H](O)C3)cc2)c2c(Cl)c(N3CCN(c4ccc(F)cc4)CC3)c(F)cc2c1=O` [Example 31, 8-chloro-6-fluoro-7-[4-(4-fluorophenyl)-piperazin-1-yl]-1-(4-{[(3R)-3-hydroxypyrrolidin-1-yl]methyl}phenyl)-4-oxo-1,4-dihydroquinoline-3-carboxylic acid]: the IC50 is under 500 nM. Consider `N#Cc1ccccc1N1CCN(c2c(F)cc3c(=O)c(C(=O)O)cn(-c4ccc(CN5CC[C@@H](O)C5)cc4)c3c2Cl)CC1` [Example 32, 8-chloro-7-[4-(2-cyanophenyl)piperazin-1-yl]-6-fluoro-1-(4-{[(3R)-3-hydroxypyrrolidin-1-yl]methyl}phenyl)-4-oxo-1,4-dihydroquinoline-3-carboxylic acid], for which the IC50 was under 500 nM. With `O=C(O)c1cn(-c2ccc(CN3CCCC3)nc2)c2c(Cl)c(N3CCN(c4ncccn4)CC3)c(F)cc2c1=O` [Example 33, 8-chloro-6-fluoro-4-oxo-7-(4-pyrimidin-2-ylpiperazin-1-yl)-1-[6-(pyrrolidin-1-ylmethyl)pyridin-3-yl]-1,4-dihydroquinoline-3-carboxylic acid], the IC50 was in the range of 2000 to 20000 nM. For `O=C(O)c1cn(-c2ccc(CN3CCCC3)nc2)c2c(Cl)c(N3CCN(c4ccccn4)CC3)c(F)cc2c1=O` [Example 34, 8-chloro-6-fluoro-4-oxo-7-(4-pyridin-2-yl-piperazin-1-yl)-1-[6-(pyrrolidin-1-ylmethyl)pyridin-3-yl]-1,4-dihydroquinoline-3-carboxylic acid], the IC50 lay in the range of 500 to 2000 nM. Take `N#Cc1cccnc1N1CCN(c2c(F)cc3c(=O)c(C(=O)O)cn(-c4ccc(CN5CCCC5)nc4)c3c2Cl)CC1` [Example 35, 8-chloro-7-[4-(3-cyanopyridin-2-yl)piperazin-1-yl]-6-fluoro-4-oxo-1-[6-(pyrrolidin-1-ylmethyl)pyridin-3-yl]-1,4-dihydroquinoline-3-carboxylic acid]: the IC50 was under 500 nM.

With `N#Cc1ccccc1N1CCN(c2c(F)cc3c(=O)c(C(=O)O)cn(-c4ccc(CN5CCCC5)nc4)c3c2Cl)CC1` [Example 36, 8-chloro-7-[4-(2-cyanophenyl)piperazin-1-yl]-6-fluoro-4-oxo-1-[6-(pyrrolidin-1-ylmethyl)pyridin-3-yl]-1,4-dihydroquinoline-3-carboxylic acid], the IC50 fell in the range of 500 to 2000 nM. Next, `O=C(O)c1cn(-c2ccc(CN3CCCC3)nc2)c2c(Cl)c(N3CCN(c4ccc(F)cc4)CC3)c(F)cc2c1=O` [Example 37, 8-chloro-6-fluoro-7-[4-(4-fluorophenyl)-piperazin-1-yl]-4-oxo-1-[6-(pyrrolidin-1-ylmethyl)pyridin-3-yl]-1,4-dihydroquinoline-3-carboxylic acid]: under 500 nM; `O=C(O)c1cn(-c2ccc(CN3CCCC3)nc2)c2c(Cl)c(N3CCN(c4ccc(Cl)cc4)CC3)c(F)cc2c1=O` [Example 38, 8-chloro-7-[4-(4-chlorophenyl)piperazin-1-yl]-6-fluoro-4-oxo-1-[6-(pyrrolidin-1-ylmethyl)pyridin-3-yl]-1,4-dihydroquinoline-3-carboxylic acid]: under 500 nM; `N#Cc1ccccc1N1CCN(c2c(F)cc3c(=O)c(C(=O)O)cn(-c4ccc(CN5CCCC5)cc4F)c3c2Cl)CC1` [Example 39, 8-chloro-7-[4-(2-cyanophenyl)piperazin-1-yl]-6-fluoro-1-[2-fluoro-4-(pyrrolidin-1-ylmethyl)phenyl]-4-oxo-1,4-dihydroquinoline-3-carboxylic acid]: under 500 nM. For the molecule `O=C(O)c1cn(-c2ccc(CN3CCCC3)cc2F)c2c(Cl)c(N3CCN(c4ncccn4)CC3)c(F)cc2c1=O` [Example 40, 8-chloro-6-fluoro-1-[2-fluoro-4-(pyrrolidin-1-ylmethyl)phenyl]-4-oxo-7-(4-pyrimidin-2-ylpiperazin-1-yl)-1,4-dihydroquinoline-3-carboxylic acid], the IC50 is under 500 nM. `O=C(O)c1cn(-c2ccc(CN3CCCC3)cc2F)c2c(Cl)c(N3CCN(c4ccc(F)cc4)CC3)c(F)cc2c1=O` [Example 41, 8-chloro-6-fluoro-7-[4-(4-fluorophenyl)-piperazin-1-yl]-1-[2-fluoro-4-(pyrrolidin-1-ylmethyl)phenyl]-4-oxo-1,4-dihydroquinoline-3-carboxylic acid]: the IC50 was under 500 nM. Turning to `O=C(O)c1cn(-c2ccc(CN3CCCC3)cc2F)c2c(Cl)c(N3CCN(c4ccc(Cl)cc4)CC3)c(F)cc2c1=O` [Example 42, 8-chloro-7-[4-(4-chlorophenyl)piperazin-1-yl]-6-fluoro-1-[2-fluoro-4-(pyrrolidin-1-ylmethyl)phenyl]-4-oxo-1,4-dihydroquinoline-3-carboxylic acid], the IC50 was under 500 nM. Turning to `O=C(O)c1cn(-c2ccc(CN3CCCC3)cc2F)c2c(Cl)c(N3CCN(c4ccccc4)CC3)c(F)cc2c1=O` [Example 43, 8-chloro-6-fluoro-1-[2-fluoro-4-(pyrrolidin-1-ylmethyl)phenyl]-4-oxo-7-(4-phenylpiperazin-1-yl)-1,4-dihydroquinoline-3-carboxylic acid], the IC50 is under 500 nM.

For the molecule `Cc1cccnc1N1CCN(c2c(F)cc3c(=O)c(C(=O)O)cn(-c4ccc(CN5CCCC5)cc4F)c3c2Cl)CC1` [Example 44, 8-chloro-6-fluoro-1-[2-fluoro-4-(pyrrolidin-1-ylmethyl)phenyl]-7-[4-(3-methylpyridin-2-yl)piperazin-1-yl]-4-oxo-1,4-dihydroquinoline-3-carboxylic acid], the IC50 is under 500 nM.
